Square brackets hold non-standard residues; d marks the D form. Ends that are not written are not given here.
Tests used:
[1] = tested on: CD4+/CD45RAlow/CD62Lhigh central memory T-cells (human PBMC); assay type: cell-based; conditions: for memory T-cell recall response, influenza epitopes: 5 PBMC donors, FIG. 14; for response of individual peptides and of heterodimeric peptides lacking a cathepsin cleavage site, compared with the response to this peptide: 4 donors, the comparators were the weaker ones, not the labelled peptide
[2] = tested on: MHC Class II (HLADP, HLADQ and HLADR alleles); conditions: previously described peptide, Virology 326 (2004) 220-230; cited from earlier work
[3] = tested on: CD4+/CD45RAlow/CD62Lhigh central memory T-cells; test: dendritic cell/CD4 T-cell co-culture, multi-color intracellular cytokine analysis; assay type: cell-based, human; conditions: for IFN-γ expression in peptide specific central memory T-cells / IL-4 expression in peptide specific central memory T-cells / TNF-α expression in peptide specific central memory T-cells: DC/CD4 co-culture with or without peptide, FIGS. 7 and 8; for co-expression of TNF-α and IFN-γ / co-expression of TNF-α and IL-4: multiple color flow cytometry, FIG. 9
Description: Early central memory T-cells express multiple cytokines (IL-2, TNF-α, IFN-γ) when re-activated with specific peptides, whereas committed effector memory T-cells are thought to selectively express IL-4 for TH2 committed effector memory, and IFN-γ for TH1 committed effector memory. The status of peptide activated memory T-cells was tested using multi-color intracellular cytokine analysis of dendritic cell/CD4 cell co-cultures.
Human peripheral blood monocytes were isolated using negative-selection magnetic beads (Dynal) and cultured in the presence of GM-CSF and IL-4 for 1 week in order to induce differentiation into dendritic cells. Allogeneic CD4 T cells were isolated using magnetic bead separation (Dynal) and co-cultured in the presence of DCs in the presence or absence of peptide. The protocol for stimulation and analysis from that point is identical to that for PBMC described above in Example 2.

[4] = tested on: human PBMC; test: interferon gamma Elispot, peptide-stimulated PBMC; assay type: cell-based; conditions: 10 μM peptide; for memory T-cell response (IFN-γ Elispot spots, normalized to non-stimulated controls): 18 hours, 5 donors, FIG. 22; for number of donors showing a recall: out of 5 donors
Description: The potency of single epitopes and chimeric epitopes have been evaluated by stimulating human PBMC with peptides in vitro for 18 hours and then analyzing the cells by Elispot. Briefly, whole blood was obtained from Research Blood Components (Cambridge). Blood was diluted in phosphate buffered saline (PBS) and then overlaid on top of Ficoll-paque premium (GE Healthcare) in a 50 mL tube. Tubes were spun for 30 minutes, and the transition phase PBMCs collected, diluted in PBS with 10% fetal calf serum (FCS) and spun for 10 minutes. Cells were resuspended in cell freezing media (Sigma) and immediately frozen at −80 C overnight. For long term storage, cells were transferred to liquid nitrogen. Cells were thawed as needed and resuspended in PBS 10% FCS, spun down and resuspended to 1×10^7 cells/mL in culture media (RPMI [cellgro]), supplemented with 10% heat inactivated fetal calf serum (Sigma) l-glutamine, penicillin and streptomycin).
The Elispot assay was performed using an interferon gamma Elispot kit (Mabtech). Briefly the Elispot was performed by coating 96 well filter plates with an IFN-γ capture antibody, then blocked with complete culture media containing 10% FCS to prevent non-specific binding. PBMC (1×10^6 cells) were plated in the antibody pre-coated Elispot plates with or without 10 μM peptide. Positive control wells were stimulated with 10 μg/mL PHA. Elispot plates were incubated for 18 hours at 37° C. followed by coating with biotinylated anti-IFN-γ secondary antibody for 2 hours at room temperature. Elispot plates were then washed and IFN-γ spots developed using 3-amino-9-ethylcarbazole, dimethylformamide, and hydrogen peroxide in acetate buffer. IFN-γ positive Elispot counts were evaluated by an outside vendor (Zelnet) and the number of spots scored per 10 million cells.

CSQRSKFLLMDALKLkvsvrLIFLARSALILR [AAWkAAT]
memory T-cell recall response, influenza epitopes ([1]; 4 μM peptide): positive

DFHFEVFNFVPCSI [RSVG162-175]
Affinity (HLA Class II type bound) [2]: (HLADP)

EKIVLLFAIVSLVKSDQICI [ABW9]
memory T-cell recall response, influenza epitopes ([1]; 4 μM peptide): not

ILMQYIKANSKFIGI QSIALSSLMVAQTLLYVLFEV (ILMQYIKANSKFIGIQSIALSSLMVAQTLLYVLFEV) [TT830DTAdV]
number of donors showing a recall response [1]: 4 donors

ILMQYIKANSKFIGIPMGLPQSIALSSLMVAQ [TT830pmglpDTt]
effect of inclusion of a cathepsin cleavage site on the response, compared with TT830DTt ([1]; human PBMC, 4 μM peptide): enhanced the response | recall activity compared with identical peptide without cleavage site (TT830DT) ([1]; human PBMC, 4 μM peptide): better than a peptide identical except without a cleavage site (TT830DT) | recall activity compared with individual components TT830 and DT alone ([1]; human PBMC, 4 μM peptide): more active than its individual components (TT830 and DT) alone | number of activated central memory T-cells (percent CD62L+/IFN-γ+ cells, normalized to non-stimulated) ([1]; human PBMC, 4 μM peptide, 20 donors, FIG. 5): highest response | number of donors positive for memory T-cells responding to peptide ([1]; out of 20 donors, positive if greater than 0.08% responding central memory T-cells, FIG. 6): 20/20 | IFN-γ expression in peptide specific central memory T-cells [3]: increased expression | IL-4 expression in peptide specific central memory T-cells [3]: not IL-4 | TNF-α expression in peptide specific central memory T-cells [3]: increased expression | co-expression of TNF-α and IFN-γ [3]: peptide induced co-expression | co-expression of TNF-α and IL-4 [3]: not co-expression

ILMQYIKANSKFIGIQSIALSSLMVAQ [TT830DTt]
co-expression of TNF-α and IFN-γ [3]: peptide induced co-expression | co-expression of TNF-α and IL-4 [3]: not co-expression

ILMQYIKANSKFIGIQSIALSSLMVAQAIPLVGEL [TT830DT]
IFN-γ expression in peptide specific central memory T-cells [3]: increased expression | IL-4 expression in peptide specific central memory T-cells [3]: not IL-4 | TNF-α expression in peptide specific central memory T-cells [3]: increased expression

ILSIYSTVASSLALAIkvsvrLIFLARSALILR [ABW2kAAT]
memory T-cell recall response, influenza epitopes ([1]; 4 μM peptide): positive

LIFLARSALILRkvsvrILSIYSTVASSLALAI [AATkABW2]
memory T-cell recall response, influenza epitopes ([1]; 4 μM peptide): positive

NAELLVALENQHTIkvsvrLIFLARSALILR (NAELLVALENQHTIKVSVRLIFLARSALILR) [3120tkAAT]
memory T-cell recall response, influenza epitopes ([1]; 4 μM peptide): positive

TLLYVLFEVPMGLPILMQYIKANSKFIGI [AdVpTT830]
effect of insertion of a cathepsin cleavage site on activity of the AdV epitope ([1]; human PBMC, 4 μM peptide): eliminated activity of the AdV epitope

TLLYVLFEVkvsvr NNFTVSFWLRVPKVSASHLET (TLLYVLFEV[dK][dV][dS][dV][dR]NNFTVSFWLRVPKVSASHLET) [AdVkTT950]
response of individual peptides and of heterodimeric peptides lacking a cathepsin cleavage site, compared with the response to this peptide ([1]; 4 μM peptide): weaker response

TLLYVLFEVkvsvrQSIALSSLMVAQ (TLLYVLFEV[dK][dV][dS][dV][dR]QSIALSSLMVAQ) [AdVkDTt]
response of individual peptides and of heterodimeric peptides lacking a cathepsin cleavage site, compared with the response to this peptide ([1]; 4 μM peptide): weaker response

VSTYMLTNSELLSLINDkvsvrAGFYHILNNPKASL [VSTkAGF]
memory T-cell response (IFN-γ Elispot spots, normalized to non-stimulated controls) [4]: highest memory T-cell response | number of donors showing a recall [4]: 5 donors

VWLYNQIALQLKNHAkvsvrAGFYHILNNPKASL [VWLkAGF]
memory T-cell response (IFN-γ Elispot spots, normalized to non-stimulated controls) [4]: highest memory T-cell response | number of donors showing a recall [4]: 5 donors
